{"source": "patent US5854279A", "about": "“Therapeutic agent for dermatosis” (Eisai Co., Ltd, priority 1996, dated 1998)", "key": {"[1]": {"system": "epidermal ornithine decarboxylase (ODC)", "test": "TPA-induced mouse epidermal ornithine decarboxylase (ODC) activity", "type": "in vivo, hairless mouse (SKH/hr-1)", "conditions": "for Epidermal ODC Activity: TPA 17 nmol, average of five cases ± standard error", "procedure": "(2) Measurement of Mouse Epidermal Ornithine Decarboxylase (ODC) Activity\n1) Induction of ODC Activity\nThe experiment was carried out according to the method by O'Brien et al. (Cancer Research, 1975, 35(2), p 1662-1670).\n[…] of acetone solution containing 17 nmol of TPA (phorbol 12-myristate 13-acetate, manufactured by Sigma) and 0.5 to 2 μmol of Compound (II) or 2-(2-acetyl-6-methoxy-3,9-dioxo-4,8-dioxa-2,10-diazaoctacosa-1-yl)-1-ethylpyridinium salt (customary name; CV-6209, manufactured by Wako Junyaku) was homogeneously applied on the skin of the back (about 8 cm^2) of the hairless mouse (strain: SKH/hr-1, female, age in week of 9). After 4.5 hours, mouse was killed by anesthetizing with ether, and skin tissue was excised. The skin tissue was treated at 55° C. for 30 seconds, then ice-cooled and the epidermis was peeled off. To this epidermis, 1 ml of 50 mM sodium phosphate buffer [pH 7.2, 0.4 mM pyridoxal 5-phosphate (manufactured by Sigma), 5 mM dithiothreitol (manufactured by Sigma)] were added, homogenized and then centrifuged at 4° C. and 30,000 g for 30 minutes to obtain a supernatant.\n2) Measurement of ODC Activity\nODC activity in the supernatant was measured by ^14 CO2 release from L-[1-^14 C]ornithine (manufactured by Sigma) as an index. A tube containing 50 μl of the above buffer comprising 1 mM L-ornithine and […] L-[1-^14 C]ornithine (manufactured by Amersham) as well as 100 μl of homogenate sample added thereto was rapidly placed into a vial, and sealed. This vial was incubated at 37° C. for one hour, to which was added 0.3 ml of 2M citric acid solution and further incubated for one hour. ^14 CO2 released during this period was trapped by using a filter containing 0.15 ml of NCS solubilizer set in the reaction vial. After removing out the tube, 15 ml of liquid scintillator (ACSII) was added and radioactivity in the vial was measured by using a liquid scintillation counter.\nFurther, the concentration of protein in the homogenate sample was quantified by using the above BIO-RAD PROTEIN ASSAY, and the amount of the released ^14 CO2 /mg protein was calculated and used as an index of ODC activity."}, "[2]": {"system": "TPA-induced earlobe edema", "test": "TPA-induced ear edema", "type": "in vivo, BALB/c mouse", "conditions": "for Right earlobe edema: TPA 2 μmol, average of seven cases ± SEM", "procedure": "The test was conducted according to the method by Carlson et al. (Agents and Actions, 1985, 17(2), p 197-204).\n(§1) That is, 2 mg of TPA (phorbol 12-myristate 13-acetate, manufactured by Sigma Chemical Co.) and 4 to 100 nmol of Compound (II) or 250 nmol of dexamethasone (manufactured by Sigma Chemical Co.) were dissolved in 20 ml of acetone. The mixture was applied to inner surface of the right earlobe of BALB/c mouse (male, age in week of 8), to induce inflammation. Four hours after TPA application, the mouse was killed by dislocation of cervical vertebrae and the thickness of each right and left earlobe was measured by using a Dial Thickness Gauge (manufactured by Peacock Co., G0.01 to 10 mm) and the difference in thickness between right and left earlobe was considered as edema."}, "[3]": {"test": "Acute toxicity test, single intravenous dosage (LD50), mouse", "parameters": "species or system mouse (Slc:ICR)", "conditions": "in vivo", "description": "(§2) Slc:SD rat and Slc:ICR mice (age in week of 6 to 8), each group has 5 male and 5 female, were applied to a toxicity test upon single dosage carried out by intravenous administration."}, "[4]": {"test": "Acute toxicity test, single intravenous dosage (LD50), rat", "parameters": "species or system rat (Slc:SD)", "conditions": "in vivo", "description": "as §2"}, "MPO (myeloperoxidase)": {"system": "MPO (myeloperoxidase)", "test": "MPO activity in TPA-treated earlobe", "type": "in vivo, BALB/c mouse", "conditions": "for MPO Activity: TPA 2 μmol, average of seven cases ± SEM", "procedure": "as §1, with “The” for “That is, 2 mg of TPA (phorbol 12-myristate 13-acetate, manufactured by Sigma Chemical Co.) and 4 to 100 nmol of Compound (II) or 250 nmol of dexamethasone (manufactured by Sigma Chemical Co.) were dissolved in 20 ml of acetone. The”\n2) Measurement of MPO Activity\nAfter measurement of edema, MPO (myeloperoxidase) activity of the excised right earlobe was measured by the following method. 1 ml of 0.5% HTAB (hexadecyl trimethylammonium bromide, manufactured by Sigma Chemical Co.)/50 mM potassium phosphate buffer, pH 6.0 was added to the excised right earlobe and homogenized. The supernatant obtained after centrifugation was used as an extract. Measurement of MPO activity in the extract was carried out according to a method using a 96-well plate. […] Absorbance at 450 nm was measured for 3 minutes at every 10 seconds. The slope of the straight line obtained for 1 minute after 10 seconds from the beginning of the reaction was calculated for every each sample. MPO activity when the slope is 1 is defined as 1 unit (U), and number of unit in the extract was obtained. Further, the amount of protein in the extract was quantified by BIO-RAD PROTEIN ASSAY (manufactured by Bio-Rad Laboratories), and expressed as MPO activity/mg protein."}, "[5]": {"conditions": "2 μmol, Compound (II) p < 0.01 vs. TPA control"}, "[6]": {"conditions": "2 μmol, significant for Compound (II)"}}, "note": "Where a name gives a salt, the structure may show the parent alone.", "data": [{"smiles": "CCCCCCCCCCCCCCCCCCNC(=O)OCC(COC(=O)N(Cc1cccc[n+]1CC)C(C)=O)OC", "note": "(centres unmarked) [CV-6209, 2-(2-acetyl-6-methoxy-3,9-dioxo-4,8-dioxa-2,10-diazaoctacosa-1-yl)-1-ethylpyridinium salt]", "values": [{"measurement": "Epidermal ODC Activity", "setting": "[1]; [5]", "value": "0.374 ± 0.147", "unit": "nmol CO2 /mg protein"}, {"measurement": "inhibition of TPA-induced increase in epidermal ODC activity", "setting": "[1]; [6]", "value": "about 53%"}]}, {"smiles": "CCCCCCCCCCCCCCCCCCNC(=O)OC1CCN(C(=O)OC[C@H](COC(=O)N(Cc2cccc[n+]2CC)C(=O)c2ccccc2OC)OC)CC1", "note": "[Compound (II), 1-ethyl-2-[N-(2-methoxy)benzoyl-N-{(2R)-2-methoxy-3-(4-octadecylcarbamoyloxy)piperidinocarbonyloxypropoxy}carbonyl]aminomethyl pyridinium chloride]", "values": [{"measurement": "inhibition for TPA-induced earlobe edema", "setting": "[2]; 4 nmol/ear", "value": "no inhibition"}, {"measurement": "Right earlobe edema", "setting": "[2]; 4 nmol/earlobe", "value": "105.9 ± 33.4", "unit": "μm"}, {"measurement": "inhibition for TPA-induced earlobe edema", "setting": "[2]; 20 nmol/ear", "value": "no inhibition"}, {"measurement": "Right earlobe edema", "setting": "[2]; 20 nmol/earlobe", "value": "92.7 ± 19.8", "unit": "μm"}, {"measurement": "inhibition for TPA-induced earlobe edema", "setting": "[2]; 100 nmol/ear, significant", "value": "about 81%"}, {"measurement": "Right earlobe edema", "setting": "[2]; 100 nmol/earlobe, P < 0.05", "value": "16.7 ± 3.0", "unit": "μm"}, {"measurement": "LD50", "setting": "[3]; female", "value": 50, "unit": "mg/kg"}, {"measurement": "LD50", "setting": "[3]; male", "value": 46.8, "unit": "mg/kg"}, {"measurement": "LD50", "setting": "[4]; female", "value": 22.9, "unit": "mg/kg"}, {"measurement": "LD50", "setting": "[4]; male", "value": 18.2, "unit": "mg/kg"}, {"measurement": "inhibition against MPO activity", "setting": "MPO (myeloperoxidase); 4 nmol/ear", "value": "did not show inhibition"}, {"measurement": "MPO Activity", "setting": "MPO (myeloperoxidase); 4 nmol/earlobe", "value": "7.63 ± 1.30 U/mg, protein"}, {"measurement": "inhibition against MPO activity", "setting": "MPO (myeloperoxidase); 20 nmol/ear", "value": "did not show inhibition"}, {"measurement": "MPO Activity", "setting": "MPO (myeloperoxidase); 20 nmol/earlobe", "value": "8.51 ± 1.21 U/mg, protein"}, {"measurement": "inhibition against MPO activity", "setting": "MPO (myeloperoxidase); 100 nmol/ear", "value": "about 46%"}, {"measurement": "MPO Activity", "setting": "MPO (myeloperoxidase); 100 nmol/earlobe", "value": "3.45 ± 1.06 U/mg, protein"}, {"measurement": "Epidermal ODC Activity", "setting": "[1]; 0.5 μmol, P < 0.05 vs. TPA control", "value": "0.379 ± 0.130", "unit": "nmol CO2 /mg protein"}, {"measurement": "inhibition of TPA-induced increase in epidermal ODC activity", "setting": "[1]; 0.5 μmol, significant", "value": "about 52%"}, {"measurement": "Epidermal ODC Activity", "setting": "[1]; [5]", "value": "0.136 ± 0.066", "unit": "nmol CO2 /mg protein"}, {"measurement": "inhibition of TPA-induced increase in epidermal ODC activity", "setting": "[1]; [6]", "value": "~83", "unit": "%"}]}, {"smiles": "C[C@@H]1C[C@H]2[C@@H]3CCC4=CC(=O)C=C[C@]4(C)[C@@]3(F)[C@@H](O)C[C@]2(C)[C@@]1(O)C(=O)CO", "note": "[Dexamethasone, dexamethasone, reference compound]", "values": [{"measurement": "inhibition for TPA-induced earlobe edema", "setting": "[2]; 250 nmol/ear, significant", "value": "about 60%"}, {"measurement": "Right earlobe edema", "setting": "[2]; 250 nmol/earlobe, P < 0.05", "value": "34.7 ± 3.3", "unit": "μm"}, {"measurement": "inhibition against MPO activity", "setting": "MPO (myeloperoxidase); 250 nmol/ear", "value": "about 13%"}, {"measurement": "MPO Activity", "setting": "MPO (myeloperoxidase); 250 nmol/earlobe", "value": "5.52 ± 0.59 U/mg, protein"}]}]}
